Laboratory results taken from US10076519B2 (CYTOKINETICS, INC., priority 2010, dated 2018).

Each molecule was assayed on rabbit skeletal myofibrils (fast skeletal myofibrils) (assay: Activation of fast skeletal myofibrils (PUMA assay, PK/LDH-coupled ATPase at pCa25)). Conditions: AC1.4 determined according to the procedure of Example 39; reported as class symbols.
Assay type: biochemical
Procedure, shortened: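 ATPase activity of Triton-washed rabbit skeletal myofibrils, roughly 90% fast fibres, tracked by NADH loss at 340 nm through a PK/LDH-coupled ADP-regenerating system. Calcium set to 25% of maximal activity (pCa25), in PIPES 12 mM pH 6.8 with 2 mM MgCl2 and 1 mM DTT; AC1.4 reported.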

Row | Mean AC1.4 | Structure (SMILES)
1 | A (A=<1 uM) | CC(C)(CNc1ccc(-c2cc(C(N)=O)ccn2)nn1)c1ccc(F)cc1 [2-(6-{[2-(4-fluorophenyl)-2-methylpropyl]amino}pyridazin-3-yl)pyridine-4-carboxamide]
2 | B (B=1-10 uM) | CC(C)(O)c1n[nH]c2ccc(-c3ccc(NCC(C)(C)c4ccc(F)cc4)nn3)cc12 [2-[5-(6-{[2-(4-fluorophenyl)-2-methylpropyl]amino}pyridazin-3-yl)-1H-indazol-3-yl]propan-2-ol]

Same assay, conditions: median AC1.4 class, procedure of Example 39

Row | Structure (SMILES) | Mean AC1.4
3 | NC(=O)c1cnc(-c2ccc(NCC3(c4ccccn4)CCC3)nn2)s1 [2-(6-{[(2-pyridylcyclobutyl)methyl]ami-no}pyridazin-3-yl)-1,3-thiazole-5-carboxamide] | A (A=<1 uM)
4 | O=C(O)c1cnc(-c2ccc(NCC3(c4ccccn4)CCC3)nn2)s1 [2-(6-{[(2-pyridylcyclobutyl)methyl]ami-no}pyridazin-3-yl)-1,3-thiazole-5-carboxylic acid] | C (C=10-20 uM)
5 | NC(=O)c1cnc(-c2ccc(NC3(c4ncccc4F)CCC3)nn2)s1 [2-(6-{[(3-fluoro-2-pyridyl)cyclobutyl]amino}pyr-idazin-3-yl)-1,3-thiazole-5-carboxamide] | B (B=1-10 uM)
6 | NC(=O)c1cnc(-c2ccc(NC3(c4ccc(F)cc4)CCC3)nn2)s1 [2-(6-{[(4-fluorophenyl)cyclobutyl]ami-no}pyridazin-3-yl)-1,3-thiazole-5-carboxamide] | B (B=1-10 uM)
7 | NC(=O)c1ccnc(C2(Nc3ccc(-c4cc(C(N)=O)ccc4F)nn3)CCC2)c1 [2-({[6-(3-carbamoyl-6-fluorophenyl)pyridazin-3-yl]amino}cyclobutyl)pyridine-4-carboxamide] | D (D=>20 uM)
8 | CC(C)(Nc1ccc(-c2ncc(C(N)=O)s2)nn1)c1cccc(OC(F)F)n1 [2-[6-({1-[6-(difluoromethoxy)(2-pyridyl)]-isopropyl}amino)pyridazin-3-yl]-1,3-thiazole-5-carboxamide] | B (B=1-10 uM)
9 | O=C(c1cnc(-c2ccc(NCC3(c4ncccc4F)CCC3)nn2)s1)N1CCCC(O)C1 (stereo not drawn) [2-[6-({[(3-fluoro(2-pyridyl))cyclobutyl]methyl}ami-no)pyridazin-3-yl](1,3-thiazol-5-yl) 3-hydroxypiperidyl ketone] | C (C=10-20 uM)
10 | O=C(c1cnc(-c2ccc(NCC3(c4ncccc4F)CCC3)nn2)s1)N1CCC(O)C1 (stereo not drawn) [2-[6-({[(3-fluoro(2-pyridyl))cyclobutyl]methyl}ami-no)pyridazin-3-yl](1,3-thiazol-5-yl) 3-hydroxypyrrolidinyl ketone] | C (C=10-20 uM)
11 | O=C(c1cnc(-c2ccc(NCC3(c4ncccc4F)CCC3)nn2)s1)N1CCC(O)CC1 [2-[6-({[(3-fluoro(2-pyridyl))cyclobutyl]methyl}ami-no)pyridazin-3-yl](1,3-thiazol-5-yl) 4-hydroxypiperidyl ketone] | C (C=10-20 uM)
12 | O=C(c1cnc(-c2ccc(NCC3(c4ncccc4F)CCC3)nn2)s1)N1CCOCC1 [2-[6-({[(3-fluoro(2-pyridyl))cyclobutyl]methyl}ami-no)pyridazin-3-yl](1,3-thiazol-5-yl) morpholin-4-yl ketone] | C (C=10-20 uM)
13 | NC(=O)c1c[nH]c(-c2ccc(NCC3(c4ncccc4F)CCC3)nn2)n1 [2-[6-({[(3-fluoro-2-pyridyl)cyclobutyl]methyl}ami-no)pyridazin-3-yl]imidazole-4-carboxamide] | B (B=1-10 uM)
14 | NC(=O)c1ccnc(-c2ccc(NCC3(c4ncccc4F)CCC3)nn2)n1 [2-[6-({[(3-fluoro-2-pyridyl)cyclobutyl]methyl}ami-no)pyridazin-3-yl]pyrimidine-4-carboxamide] | A (A=<1 uM)
15 | O=C1NCc2cc(-c3ccc(NCC4(c5ncccc5F)CCC4)nn3)sc21 [2-[6-({[(3-fluoro-2-pyridyl)cyclobutyl]methyl}ami-no)pyridazin-3-yl]thiopheno[2,3-c]3-pyrrolin-6-one] | B (B=1-10 uM)
16 | NC(=O)CNCc1cnc(-c2ccc(NCC3(c4ncccc4F)CCC3)nn2)s1 [2-[({2-[6-({[(3-fluoro-2-pyridyl)cyclobutyl]methyl}ami-no)pyridazin-3-yl]-1,3-thiazol-5-yl}methyl)amino]acetamide] | B (B=1-10 uM)

Continued, values first:

Row | Mean AC1.4 | Structure (SMILES)
17 | D (D=>20 uM) | Cn1cc(C(N)=O)nc1-c1ccc(NCC2(c3ncccc3F)CCC2)nn1 [2-[6-({[(3-fluoro(2-pyridyl))cyclobutyl]methyl}ami-no)pyridazin-3-yl]-1-methylimidazole-4-carboxamide]
18 | B (B=1-10 uM) | Cn1c(C(N)=O)cnc1-c1ccc(NCC2(c3ncccc3F)CCC2)nn1 [2-[6-({[(3-fluoro(2-pyridyl))cyclobutyl]methyl}ami-no)pyridazin-3-yl]-1-methylimidazole-5-carboxamide]
19 | D (D=>20 uM) | N#Cc1sc(-c2ccc(NCC3(c4ncccc4F)CCC3)nn2)nc1O [2-[6-({[(3-fluoro(2-pyridyl))cyclobutyl]methyl}ami-no)pyridazin-3-yl]-4-hydroxy-1,3-thiazole-5-carbonitrile]
20 | B (B=1-10 uM) | NC(=O)c1sc(-c2ccc(NCC3(c4ncccc4F)CCC3)nn2)nc1O [2-[6-({[(3-fluoro(2-pyridyl))cyclobutyl]methyl}ami-no)pyridazin-3-yl]-4-hydroxy-1,3-thiazole-5-carboxamide]
21 | A (A=<1 uM) | COc1nc(-c2ccc(NCC3(c4ncccc4F)CCC3)nn2)sc1C(N)=O [2-[6-({[(3-fluoro(2-pyridyl))cyclobutyl]methyl}ami-no)pyridazin-3-yl]-4-methoxy-1,3-thiazole-5-carboxamide]
22 | C (C=10-20 uM) | COc1nc(-c2ccc(NCC3(c4ncccc4F)CCC3)nn2)sc1C(=O)O [2-[6-({[(3-fluoro(2-pyridyl))cyclobutyl]methyl}ami-no)pyridazin-3-yl]-4-methoxy-1,3-thiazole-5-carboxylic acid]
23 | B (B=1-10 uM) | Cc1nc(-c2ccc(NCC3(c4ncccc4F)CCC3)nn2)sc1C(N)=O [2-[6-({[(3-fluoro(2-pyridyl))cyclobutyl]methyl}ami-no)pyridazin-3-yl]-4-methyl-1,3-thiazole-5-carboxamide]
24 | D (D=>20 uM) | CS(=O)(=O)N1Cc2nc(-c3ccc(NCC4(c5ncccc5F)CCC4)nn3)sc2C1 [2-[6-({[(3-fluoro(2-pyridyl))cyclobutyl]methyl}ami-no)pyridazin-3-yl]-5-(methylsulfonyl)-3-pyrrolino[3,4-d]1,3-thiazole]
25 | B (B=1-10 uM) | N#Cc1cnc(-c2ccc(NCC3(c4ncccc4F)CCC3)nn2)s1 [2-[6-({[(3-fluoro-2-pyridyl)cyclobutyl]methyl}ami-no)pyridazin-3-yl]-1,3-thiazole-5-carbonitrile]
26 | C (C=10-20 uM) | O=C(O)c1cnc(-c2ccc(NCC3(c4ncccc4F)CCC3)nn2)s1 [2-[6-({[(3-fluoro-2-pyridyl)cyclobutyl]methyl}ami-no)pyridazin-3-yl]-1,3-thiazole-5-carboxylic acid]
27 | B (B=1-10 uM) | NS(=O)(=O)c1cnc(-c2ccc(NCC3(c4ncccc4F)CCC3)nn2)s1 [2-[6-({[(3-fluoro-2-pyridyl)cyclobutyl]methyl}ami-no)pyridazin-3-yl]-1,3-thiazole-5-sulfonamide]
28 | B (B=1-10 uM) | Oc1ccc2nc(-c3ccc(NCC4(c5ncccc5F)CCC4)nn3)sc2n1 [2-[6-({[(3-fluoro-2-pyridyl)cyclobutyl]methyl}ami-no)pyridazin-3-yl]-1,3-thiazolino[5,4-b]pyridin-5-ol]
29 | D (D=>20 uM) | NC(=O)c1ccc2nc(-c3ccc(NCC4(c5ncccc5F)CCC4)nn3)sc2n1 [2-[6-({[(3-fluoro-2-pyridyl)cyclobutyl]methyl}ami-no)pyridazin-3-yl]-1,3-thiazolino[5,4-b]pyridine-5-carboxamide]

Same assay, conditions: median AC1.4 reported as class; procedure of Example 39

Row | Structure (SMILES) | Mean AC1.4
30 | CC(C)(Nc1ccc(-c2ncc(CC(N)=O)s2)nn1)c1ncccc1Cl [2-[2-(6-{[1-(3-chloro(2-pyridyl))-isopropyl]amino}pyridazin-3-yl)-1,3-thiazol-5-yl]acetamide] | D (D=>20 uM)
31 | CC(C)(CNc1ccc(-c2ncc(CC(N)=O)s2)nn1)c1ncccc1Cl [2-[2-(6-{[2-(3-chloro(2-pyridyl))-2-methylpropyl]amino}pyridazin-3-yl)-1,3-thiazol-5-yl]acetamide] | B (B=1-10 uM)
32 | Cc1cc(NCC2(c3ncccc3F)CCC2)nnc1-c1ncc(C(N)=O)s1 [2-[6-({[(3-fluoro(2-pyridyl))cyclobutyl]methyl}amino)-4-methylpyridazin-3-yl]-1,3-thiazole-5-carboxamide] | A (A=<1 uM)

Now from value to molecule:

Row | Mean AC1.4 | Structure (SMILES)
33 | D (D=>20 uM) | CS(=O)(=O)N1CCc2nc(-c3ccc(NCC4(c5ncccc5F)CCC4)nn3)sc2C1 [2-[6-({[(3-fluoro(2-pyridyl))cyclobutyl]methyl}ami-no)pyridazin-3-yl]-5-(methylsulfonyl)-4,5,6,7-tetrahydro-1,3-thiazolo[5,4-c]pyridine]
34 | D (D=>20 uM) | NC(=O)N1CCc2nc(-c3ccc(NCC4(c5ncccc5F)CCC4)nn3)sc2C1 [2-[6-({[(3-fluoro-2-pyridyl)cyclobutyl]methyl}ami-no)pyridazin-3-yl]-4,5,6,7-tetrahydro-1,3-thiazolo[5,4-c]pyridine-5-carboxamide]
35 | D (D=>20 uM) | NC(=O)C1CCc2sc(-c3ccc(NCC4(c5ncccc5F)CCC4)nn3)nc21 (stereo not drawn) [2-[6-({[(3-fluoro-2-pyridyl)cyclobutyl]methyl}ami-no)pyridazin-3-yl]-4,5,6-trihydrocyclopenta[1,2-d]1,3-thiazole-4-carboxamide]
36 | D (D=>20 uM) | O=C(O)C1CCc2sc(-c3ccc(NCC4(c5ncccc5F)CCC4)nn3)nc21 (stereo not drawn) [2-[6-({[(3-fluoro-2-pyridyl)cyclobutyl]methyl}ami-no)pyridazin-3-yl]-4,5,6-trihydrocyclopenta[1,2-d]1,3-thiazole-4-carboxylic acid]
